Bounds are passed on as bounds.

Assay [1] concerns the target T1, (His)6-SOX11-DBD protein (Homo sapiens, UniProt P35716).
T1 construct: Recombinant (His)6-SOX11-DBD protein was immobilized
T1 sequence (P35716 49-117 limits assumed): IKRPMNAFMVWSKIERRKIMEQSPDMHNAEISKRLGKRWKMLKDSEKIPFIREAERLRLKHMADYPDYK
Put plainly: Surface Plasmon Resonance (SPR) assay. The following applies: immobilized recombinant (His)6-SOX11-DBD, 25° C., compounds 5-40 μM, mean of three experiments. In kind it is binding. Here is the method: Surface Plasmon Resonance (SPR) Assay
Recombinant (His)6-SOX11-DBD protein was immobilized at a flow rate of 10 μl/min for 180 seconds to the right channel of a gold-coated SCR NiHC200M sensor chip (XanTec bioanalytics) placed in a Reichert 2SPR instrument (Reichert Technologies). The left channel, without immobilized protein, was used as a reference. […] Compounds flowed sequentially from the left to the right channel over the prepared sensor chip surface. 120 seconds association phase with each compound concentration was followed by 300 seconds dissociation phase with the assay buffer alone. The ka, kd, and KD values were determined from the sensograms for at least 3 concentrations of each compound by curve fitting the data using Reichert's TraceDrawer software. The mean KD value for each compound was calculated from three separate experiments.

For assay [2], the system named is Jeko-1 (SOX11+). The assay can be described thus: Cell viability assay (CellTiter-Blue resazurin reduction). Type of assay: cell-based. The following applies: Homo sapiens, JeKo-1, 72 h, JeKo-1 cells; for IC50: 0-40 μM; for viability at 20 µM: 20 μM compound, normalized to 0.2% DMSO. Here is the method: Cell viability was determined by a fluorometric resazurin reduction method (CellTiter-Blue; Promega, Madison, Wis.) following the manufacturer's instructions. […] Cells were incubated for 72 hours. After incubation, 20 μl CellTiter-Blue Cell was added to each well and incubated for another 2 hours. […] The number of viable cells in each treated well was calculated, based on the linear least squares regression of the standard curve (OD vs. cell concentration). The viability of cells treated with compounds was normalized to the viability of cells treated with 0.2% Dimethyl sulfoxide (DMSO). Cell counts were confirmed with Trypan Blue Exclusion Assay on the Countess automated cell counter (Invitrogen) according to the manufacturer's specifications. The average and mean standard deviation were calculated from three separate experiments. IC50 values were calculated using the GraphPad Prism (version 4.00) based on a sigmoidal dose-response equation.

Broadly, the Kd is the free concentration of one partner at which half of the binding sites on the other are occupied at equilibrium, for simple one-to-one binding. For orientation: IC50 means the concentration at which inhibition is half-maximal. The viability is a read-out of living cells in per cent, often relative to untreated cells. In the case of `O=C(Nc1ccc(S(=O)(=O)Nc2ccccc2)cc1)c1ccc2ccccc2c1`, the Kd in assay [1] came out at 3.42 µM. In addition, in assay [2], the IC50 was over 20 µM and the viability at 20 µM amounted to 96.3%.
The matching figures for `O=C(Nc1ccc(S(=O)(=O)Nc2ccccc2)cc1)c1ccc2cccnc2c1`: 2.01 µM, over 20 µM and 94.2%.
On to `O=C(Nc1ccc(S(=O)(=O)Nc2ccccc2)cc1)c1ccc2ncccc2c1`, for which the Kd in assay [1] stood at 70 µM. In assay [2], the IC50 was under 20 µM and the viability at 20 µM came to 26%.
In the case of `O=C(Nc1ccc(S(=O)(=O)Nc2ccccc2)cc1)c1ccc2cnccc2c1`, in assay [1], the Kd is 134 µM. In assay [2], half-maximal inhibition (IC50) was put at 15 µM and the viability at 20 µM was determined as 6.45%.
Take `O=C(Nc1ccc(S(=O)(=O)Nc2ccccc2)cc1)c1ccc2cncnc2c1`: the equilibrium dissociation constant (Kd) in assay [1] stood at 226 µM. Moreover, in assay [2], the IC50 was over 20 µM and the viability at 20 µM worked out at 100%.
The corresponding values for `CC1Sc2ccc(NC(=O)c3ccc(S(=O)(=O)Nc4ccccc4)c(F)c3)cc2NC1=O` (stereo not shown) are 16.1 µM, over 20 µM and 75.8%.
The corresponding values for `CC1Sc2ccc(C(=O)Nc3ccc(S(=O)(=O)N(C)c4ccccc4)cc3)cc2NC1=O` (stereo not shown) are 1.47 µM, 9 µM and 18%.
The matching figures for `CC1Sc2ccc(C(=O)Nc3cccc(S(=O)(=O)Nc4ccc(F)cc4)c3)cc2NC1=O` (stereo not shown): 8.48 µM, over 20 µM and 55.6%.
Take `CC1Sc2ccc(C(=O)Nc3cccc(S(=O)(=O)Nc4ccc(C(F)(F)F)cc4)c3)cc2NC1=O` (stereo not shown): the Kd in assay [1] turned out to be 2.12 µM. Also, in assay [2], the IC50 was under 20 µM and the viability at 20 µM worked out at 22.2%.
The matching figures for `Cc1ccc(NS(=O)(=O)c2cccc(NC(=O)c3ccc4c(c3)NC(=O)C(C)S4)c2)cc1` (stereo not shown): 6.08 µM, 7 µM and 2.16%.
As for `CC1Sc2ccc(C(=O)Nc3cccc(S(=O)(=O)NC4CC4)c3)cc2NC1=O` (stereo not shown), the Kd in assay [1] was determined as 96.9 µM. For the same compound, in assay [2], half-maximal inhibition (IC50) required 4 µM and the viability at 20 µM stood at 11.9%.
The matching figures for `Cc1ccccc1NS(=O)(=O)c1cccc(NC(=O)c2ccc3c(c2)NC(=O)C(C)S3)c1` (stereo not shown): 7.42 µM, 6 µM and 6.11%.
The corresponding values for `Cc1cccc(NS(=O)(=O)c2cccc(NC(=O)c3ccc4c(c3)NC(=O)C(C)S4)c2)c1` (stereo not shown) are 2.47 µM, 10 µM and 3.73%.
Consider `CC1Sc2ccc(C(=O)Nc3cccc(S(=O)(=O)Nc4ccccc4F)c3)cc2NC1=O` (stereo not shown), for which the Kd in assay [1] amounted to 28.7 µM. Further, in assay [2], the IC50 turned out to be 13 µM and the viability at 20 µM turned out to be 22.7%.
Turning to `CC1Sc2ccc(C(=O)Nc3cccc(S(=O)(=O)Nc4ccccc4C(F)(F)F)c3)cc2NC1=O` (stereo not shown), the Kd in assay [1] was determined as 91.7 µM. In assay [2], the IC50 is over 20 µM and the viability at 20 µM came out at 73.6%.
`CC1Sc2ccc(C(=O)Nc3cccc(S(=O)(=O)Nc4cccc(Cl)c4)c3)cc2NC1=O` (stereo not shown): in assay [1], the Kd was 3.15 µM. In assay [2], the IC50 is under 20 µM and the viability at 20 µM is 28.8%.
The matching figures for `CC1Sc2ccc(C(=O)Nc3cccc(S(=O)(=O)Nc4ccc(N)cc4)c3)cc2NC1=O` (stereo not shown): 59.7 µM, over 20 µM and 59.7%.
With `CC1Sc2ccc(C(=O)Nc3cccc(S(=O)(=O)Nc4ccc(NC(=O)OC(C)(C)C)cc4)c3)cc2NC1=O` (stereo not shown), the Kd in assay [1] came to 5.07 µM. In assay [2], the IC50 was over 20 µM and the viability at 20 µM was determined as 67.4%.
For `CC1Sc2ccc(C(=O)Nc3cccc(S(=O)(=O)Nc4ccncc4)c3)cc2NC1=O` (stereo not shown), in assay [1], the Kd worked out at 21.2 µM. Also, in assay [2], the IC50 is over 20 µM and the viability at 20 µM amounted to 95.8%.
Take `CC1Sc2ccc(C(=O)Nc3cccc(S(=O)(=O)NC4CCN(C(=O)OC(C)(C)C)CC4)c3)cc2NC1=O` (stereo not shown): the Kd in assay [1] worked out at 142 µM. For the same compound, in assay [2], half-maximal inhibition (IC50) was put at 15 µM and the viability at 20 µM was determined as 13%.
The matching figures for `CC1Sc2ccc(C(=O)Nc3cccc(S(=O)(=O)N4CCN(C(=O)OC(C)(C)C)CC4)c3)cc2NC1=O` (stereo not shown): 1.76 µM, 18 µM and 36.4%.
The matching figures for `CC1Sc2ccc(C(=O)Nc3cccc(S(=O)(=O)NC4CCNCC4)c3)cc2NC1=O` (stereo not shown): 54.6 µM, over 20 µM and 96.6%.
`CC1Sc2ccc(C(=O)Nc3cccc(S(=O)(=O)N4CCNCC4)c3)cc2NC1=O` (stereo not shown): in assay [1], the Kd came to 131 µM. Moreover, in assay [2], the IC50 is over 20 µM and the viability at 20 µM was determined as 114%.
As for `O=C(Nc1cccc(S(=O)(=O)N2CCCC2)c1)c1ccc2c(c1)CCCS2`, the Kd in assay [1] worked out at 1.98 µM. Further, in assay [2], the viability at 20 µM was found to be 27.1%.
The matching figures for `O=C(Nc1cccc(S(=O)(=O)N2CCCCC2)c1)c1ccc2c(c1)CCCS2`: 3.01 µM and 54.2%.
The corresponding values for `Cc1ccc(NC(=O)c2ccc3c(c2)N(C)C(=O)CS3)cc1S(=O)(=O)N1CCCC1` are 35.9 µM and 90.9%.
As for `Cc1ccc(NC(=O)c2ccc3c(c2)N(C)C(=O)CS3)cc1S(=O)(=O)N1CCCCC1`, in assay [1], the Kd amounted to 8.89 µM. The viability at 20 µM in assay [2] turned out to be 3.42%.
The corresponding values for `O=C(Nc1ccc(S(=O)(=O)N2CCCCC2)c(Cl)c1)c1ccc2c(c1)CCCS2` are 17.6 µM and 35.1%.
The corresponding values for `CN1C(=O)CSc2ccc(C(=O)Nc3ccc(S(=O)(=O)N4CCCC4)c(Cl)c3)cc21` are 27.4 µM and 16%.
For `CN1C(=O)CSc2ccc(C(=O)Nc3ccc(S(=O)(=O)N4CCCCC4)c(Cl)c3)cc21`, the Kd in assay [1] came to 2.75 µM. In addition, in assay [2], the viability at 20 µM worked out at 4.13%.
For the compound `O=C(Nc1ccc(CNc2ccccc2)cc1)c1ccc2c(c1)CCCS2`, the Kd in assay [1] came to 13.5 µM. In assay [2], the viability at 20 µM stood at 51.9%.
The corresponding values for `O=C(Nc1cccc(CNc2ccccc2)c1)c1ccc2c(c1)CCCS2` are 7.34 µM and 85.3%.
Regarding `O=C(Nc1ccc(S(=O)(=O)N2CCCC2)c(Cl)c1)c1ccc2c(c1)CCCS2`, the Kd in assay [1] was 3.86 µM. For the same compound, in assay [2], the viability at 20 µM came to 1.26%.
The corresponding values for `CC1Sc2ccc(C(=O)Nc3ccc(S(=O)(=O)N4CCCC4)c(Cl)c3)cc2N(C)C1=O` (stereo not shown) are 20.4 µM and 8.44%.
On to `CC1Sc2ccc(C(=O)Nc3cccc(S(=O)(=O)N4CCCC4)c3)cc2N(C)C1=O` (stereo not shown), for which the Kd in assay [1] was determined as 346 µM. The viability at 20 µM in assay [2] was 13.9%.
Turning to `Cc1ccccc1COc1cccc(NC(=O)c2ccc3c(c2)NC(=O)C(C)S3)c1` (stereo not shown), the Kd in assay [1] came to 5.41 µM. Also, the viability at 20 µM in assay [2] turned out to be 110%.
The matching figures for `CC1Sc2ccc(C(=O)Nc3cccc(OCc4ccccc4)c3)cc2NC1=O` (stereo not shown): 13.7 µM and 107%.
The corresponding values for `CC1Sc2ccc(C(=O)Nc3ccc(S(=O)(=O)N4CCCC4)c(Cl)c3)cc2NC1=O` (stereo not shown) are 13.8 µM and 8.93%.
The corresponding values for `CC1Sc2ccc(C(=O)Nc3ccc(Cl)c(S(=O)(=O)N(C)C(C)C)c3)cc2NC1=O` (stereo not shown) are 13.4 µM and 12%.
Take `Cc1ccccc1COc1ccc(NC(=O)c2ccc3c(c2)NC(=O)C(C)S3)cc1` (stereo not shown): the Kd in assay [1] was found to be 7.91 µM. For the same compound, the viability at 20 µM in assay [2] amounted to 99.2%.
Take `CC1Sc2ccc(C(=O)Nc3ccc(Cl)c(S(=O)(=O)N4CCCC4)c3)cc2NC1=O` (stereo not shown): in assay [1], the Kd came out at 23.9 µM. Moreover, the viability at 20 µM in assay [2] worked out at 1.39%.
The matching figures for `c1ccc(COc2ccc(CNc3ccc4cnccc4c3)cc2)cc1`: 33.7 µM and 1.2%.
The matching figures for `c1ccc(COc2cccc(CNc3ccc4cncnc4c3)c2)cc1`: 24.2 µM and 1.4%.
The corresponding values for `c1ccc(COc2ccc(CNc3ccc4cncnc4c3)cc2)cc1` are 5.2 µM and 1.09%.
Take `c1ccc(COc2cccc(CNc3ccc4cnccc4c3)c2)cc1`: in assay [1], the Kd was 47.8 µM. In assay [2], the viability at 20 µM came to 1.12%.
Turning to `CC1Sc2ccc(C(=O)Nc3ccc(CN4CCCCC4)cc3)cc2NC1=O` (stereo not shown), the Kd in assay [1] worked out at 3.43 µM. For the same compound, the viability at 20 µM in assay [2] was 108%.
In the case of `CC1Sc2ccc(C(=O)Nc3ccc(CN4CCCC4)cc3)cc2NC1=O` (stereo not shown), the Kd in assay [1] was determined as 71.5 µM. The viability at 20 µM in assay [2] was 104%.
The matching figures for `CC1Sc2ccc(C(=O)Nc3ccc(CN(C)C(C)C)cc3)cc2NC1=O` (stereo not shown): 1.17 µM and 105%.
As for `CC1Sc2ccc(C(=O)Nc3ccc(CN(C)c4ccccc4)cc3)cc2NC1=O` (stereo not shown), the Kd in assay [1] worked out at 3.62 µM. For the same compound, the viability at 20 µM in assay [2] was 84.9%.

The values are drawn from patent US20230242496A1, “SOX11 INHIBITORS FOR TREATING MANTLE CELL LYMPHOMA” (Icahn School of Medicine At Mount Sinai, priority 2020, published 2023).
